In patent US12168012B2, “NLRP3 inflammasome inhibitors” (Novartis AG, priority 2018, dated 2024):

Legend:
Format in all cases: cell-based
[1] = tested on: NF-kB-dependent TNF-α secretion; test: TNF-α secretion assay (counterscreen); settings: Homo sapiens; THP-1 cells, Pam3CSK4-stimulated, 3 hours, HTRF
Method in brief: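 Undifferentiated THP-1 cells, rested overnight, given compound then stimulated with 1 μg/mL LPS or 100 ng/mL Pam3CSK4 for 3 hours. Supernatant TNF-α measured by HTRF; IC50 from four-parameter logistic fit of % inhibition versus concentration, with viability monitored.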

THP-1 cells = test: Readout of pyroptosis (PrestoBlue cell viability reagent) in the IL-1β secretion assay; settings: Homo sapiens; PMA-differentiated THP-1 cells, nigericin; values marked * in the IL-1β column
Method: Monocytic THP-1 cells (ATCC: TIB-202) were maintained according to providers' instructions in RPMI media (RPMI/Hepes+10% fetal bovine serum+Sodium Pyruvate+0.05 mM Beta-mercaptoethanol (1000× stock)+Pen-Strep). Cells were differentiated in bulk with 0.5 μM phorbol 12-myristate 13-acetate (PMA; Sigma #P8139) for 3 hours, media was exchanged, and cells were plated at 50,000 cells per well in a 384-well flat-bottom cell culture plates (Greiner, #781986), and allowed to differentiate overnight. Compound in a 1:3.16 serial dilution series in DMSO was added 1:100 to the cells and incubated for 1 hour. The NLRP3 inflammasome was activated with the addition of 15 μM (final concentration) Nigericin (Enzo Life Sciences, #BML-CA421-0005), and cells were incubated for 3 hours. 10 μL supernatant was removed, and IL-1p levels were monitored using an HTRF assay (CisBio, #62IL1PEC) according to manufacturers' instructions. Viability and pyroptosis was monitored with the addition of PrestoBlue cell viability reagent (Life Technologies, #A13261) directly to the cell culture plate.

NLRP3 inflammasome = test: IL-1β secretion assay; settings: Homo sapiens, THP-1, 3 h, PMA-differentiated THP-1 cells, 15 μM nigericin, HTRF
Method in brief: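 PMA-differentiated THP-1 cells stimulated with nigericin to trigger NLRP3-dependent IL-1β secretion, measured by HTRF after 3 h. Viability/pyroptosis monitored with PrestoBlue. IC50 from logistic fit of % inhibition vs concentration with Hill coefficient.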

In the case of `CC(C)c1nn(CC(=O)N[C@H]2CCC[C@@H](NC(=O)OC(C)(C)C)C2)c(=O)c2cc3sc(Cl)cc3n12` [Ex 56, tert-Butyl ((1R,3S)-3-(2-(2-chloro-5-isopropyl-8-oxothieno[2′,3′:4,5]pyrrolo[1,2-d][1,2,4]triazin-7(8H)-yl)acetamido)cyclohexyl)carbamate], the IC50 [1] is reported as > 100 µM and the IC50 (THP-1 cells) is reported as > 0.33 µM.

`CC(C)(O)c1nn(CC(=O)Nc2cccc(NS(C)(=O)=O)c2)c(=O)c2cc3sc(Cl)cc3n12` [Ex 116, 2-(2-Chloro-5-(2-hydroxypropan-2-yl)-8-oxothieno[2′,3′:4,5]pyrrolo[1,2-d][1,2,4]triazin-7(8H)-yl)-N-(3-(methylsulfonamido)phenyl)acetamide] showed an IC50 (THP-1 cells) of 0.4 µM.

Work on `CC(C)c1nn(CC(=O)Nc2nncs2)c(=O)c2cc3sc(Cl)cc3n12` [Ex 117, 2-(2-Chloro-5-isopropyl-8-oxothieno[2′,3′:4,5]pyrrolo[1,2-d][1,2,4]triazin-7(8H)-yl)-N-(1,3,4-thiadiazol-2-yl)acetamide] yielded an IC50 (THP-1 cells) of 6 µM.

For `CC(C)c1nn(CC(=O)N[C@@H]2CCCN(CC3(O)CCC3)C2)c(=O)c2cc3sc(Cl)cc3n12` [Ex 131, (R)-2-(2-Chloro-5-isopropyl-8-oxothieno[2′,3′:4,5]pyrrolo[1,2-d][1,2,4]triazin-7(8H)-yl)-N-(1-((1-hydroxycyclobutyl)methyl)piperidin-3-yl)acetamide], the IC50 (NLRP3 inflammasome) was 0.0179 µM and the IC50 [1] was > 33 µM.

In the case of `CC(C)c1nn(CC(=O)N[C@@H]2CCCN(CCO)C2)c(=O)c2cc3sc(Cl)cc3n12` [Ex 133, (R)-2-(2-Chloro-5-isopropyl-8-oxothieno[2′,3′:4,5]pyrrolo[1,2-d][1,2,4]triazin-7(8H)-yl)-N-(1-(2-hydroxyethyl)piperidin-3-yl)acetamide], the IC50 (NLRP3 inflammasome) is reported as 0.0205 µM and the IC50 [1] is reported as > 100 µM.

With `CC(C)c1nn(CC(=O)N[C@@H]2CCCN(CC3CC3)C2)c(=O)c2cc3sc(Cl)cc3n12` [Ex 134, (R)-2-(2-Chloro-5-isopropyl-8-oxothieno[2′,3′:4,5]pyrrolo[1,2-d][1,2,4]triazin-7(8H)-yl)-N-(1-(cyclopropylmethyl)piperidin-3-yl)acetamide] the IC50 (NLRP3 inflammasome) was 0.0007 µM and the IC50 [1] was > 100 µM.
